From US6350410B1, “Method and composition for inhibiting biological fouling in an irrigation system” (CH20 Incorporated, priority 1995, dated 2002)

System: pond water supporting algal and protozoan life, inoculated with bacterium escherichia coli
Assay: Plate count test on pond water sample inoculated with escherichia coli
Format: cell-based
Conditions: for population (plate count): after five days, untreated sample 100 organisms per milliliter
Procedure: A sample of pond water was obtained. […] The pond water was inoculated with a large population of bacterium escherichia coli. A plate count test was run on the pond water sample to determine the population. […] Dilution was performed with pond water to yield a population that would register on a plate count test. One liter of the sample was removed and left untreated.
A second one liter portion was taken from the pond water sample. A composition of about 2% active zinc sulfate was mixed with the water sample to yield active zinc at about 0.1 ppm.
A third one liter portion was taken from the pond water sample. A composition of about 2% active zinc sulfate was mixed with the water sample to yield active zinc at about 10.0 ppm.
A fourth one liter portion was taken from the pond water sample. A zinc chelated product was prepared containing about 2% active zinc sulfate which was chelated on a 1:1 molar ratio with 1-hydroxyethane 1,1-diphosphonic acid (HEDPA). The chelated zinc product was added to the sample to yield chelated zinc at about 0.1 ppm.
A fifth one liter portion was taken from the pond water sample. A zinc chelated product was prepared containing about 2% active zinc sulfate which was chelated on a 1:1 molar ratio with HEDPA. The chelated zinc product was added to the sample to yield chelated zinc at about 10.0 ppm.

O=S(=O)([O-])[O-].[Zn+2] [active zinc, zinc sulfate]
population (plate count) (about 0.1 ppm in one liter pond water sample): 1 organism per milliliter
population (plate count) (about 10.0 ppm in one liter pond water sample): 6 organisms per milliliter
treatment of biological fouling (in words) (about 10.0 ppm, compared to the untreated sample): effective treatment
